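Growth conditions: 96-well plates. Treatment: test compound, 48 hours, 5 concentrations. Analysis: linear interpolation between bracketing concentrations; unreached endpoints set to highest concentration. TGI: concentration producing complete growth inhibition.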 Bounds are passed on as bounds.

What is called TGI is the concentration at which net growth stops. Low readings indicate more potent growth arrest, high ones less potent growth arrest.

Test systems include SNB-19 CNS; HT29 colon; SN12C renal; OVCAR-3 ovarian; HOP-92 NSCLC; RPMI-8226 leukemia; OVCAR-4 ovarian; NCI-H522 lung; SF-539 CNS; SR leukemia; NCI-H23 lung; A498 renal; SNB-75 CNS; SK-MEL-2 melanoma; A549 NSCLC; SW-620 colon; NCI-H460 lung; OVCAR-5 ovarian; HCT-116 colon.
Test in all cases: DTP human tumour cell line panel, 48 h

With `CCN(CC)CCC(=O)/C=C/c1ccccc1`, the TGI turned out to be 37.1 µM with SNB-19 CNS; 12.4 µM in the assay with HT29 colon; 38.6 µM with SN12C renal; 12.1 µM in the assay with OVCAR-3 ovarian; 28.7 µM in the assay on HOP-92 NSCLC; 7.5 µM in the assay on RPMI-8226 leukemia. Besides, the TGI in the assay on OVCAR-4 ovarian was above 94.4 µM; in the assay with NCI-H522 lung it was 24.2 µM; with SF-539 CNS it was 37.5 µM; with SR leukemia it was 16.1 µM; with NCI-H23 lung it was 48.1 µM; with A498 renal, above 60.6 µM. Also, the TGI worked out at 28.8 µM in the assay on SNB-75 CNS; 65.5 µM with SK-MEL-2 melanoma; 39.9 µM with A549 NSCLC; 23.4 µM with SW-620 colon; 32.6 µM in the assay on NCI-H460 lung; 31.3 µM in the assay on OVCAR-5 ovarian. Besides, the TGI with HCT-116 colon came to 22.4 µM.

With `O=C1NC(NNc2ccccc2)=N/C1=C\c1ccccc1O`, the TGI in the assay with SNB-19 CNS, in the assay with HT29 colon, in the assay on SN12C renal, in the assay with OVCAR-3 ovarian, with HOP-92 NSCLC and in the assay with RPMI-8226 leukemia was above 100 µM each time. The TGI in the assay on OVCAR-4 ovarian, with NCI-H522 lung, in the assay with SF-539 CNS, in the assay on SR leukemia, in the assay with NCI-H23 lung and in the assay with A498 renal was above 100 µM throughout. Besides, the TGI with SNB-75 CNS, in the assay with SK-MEL-2 melanoma, with A549 NSCLC, in the assay on SW-620 colon, in the assay with NCI-H460 lung and in the assay with OVCAR-5 ovarian was above 100 µM in each case. The same molecule yielded a TGI in the assay with HCT-116 colon above 100 µM.

With `C=C(CCC/C(C)=C/C=C/[C@]1(C)CCCc2ccoc21)CC(=O)O`, the TGI in the assay on SNB-19 CNS, with HT29 colon, with SN12C renal, in the assay with OVCAR-3 ovarian, in the assay with HOP-92 NSCLC and in the assay on RPMI-8226 leukemia was above 100 µM each time. Besides, the TGI in the assay with OVCAR-4 ovarian, in the assay on NCI-H522 lung, in the assay with SF-539 CNS, with SR leukemia, in the assay on NCI-H23 lung and in the assay with A498 renal was above 100 µM in each case. For the same molecule, the TGI in the assay on SNB-75 CNS, in the assay on SK-MEL-2 melanoma, in the assay with A549 NSCLC, in the assay with SW-620 colon, with NCI-H460 lung and with OVCAR-5 ovarian was above 100 µM in each case. The TGI in the assay with HCT-116 colon is above 100 µM.

Regarding `NS(=O)(=O)c1ccc(N=Nc2nc3[nH]c(=O)[nH]c(=O)c3[nH]2)cc1`, the total growth inhibition concentration (TGI) in the assay on SNB-19 CNS, in the assay on HT29 colon, with SN12C renal, with OVCAR-3 ovarian, with HOP-92 NSCLC and in the assay on RPMI-8226 leukemia was above 100 µM throughout. Also, the TGI with OVCAR-4 ovarian, in the assay on NCI-H522 lung, in the assay on SF-539 CNS, in the assay on SR leukemia, in the assay with NCI-H23 lung and in the assay on A498 renal was above 100 µM in each case. Besides, the TGI with SNB-75 CNS, in the assay with SK-MEL-2 melanoma, in the assay with A549 NSCLC, with SW-620 colon, with NCI-H460 lung and in the assay on OVCAR-5 ovarian was above 100 µM each time. Besides, the TGI in the assay with HCT-116 colon was above 100 µM.

`CO/N=C/c1cc(OC)c(OC)c(OC)c1`: the TGI in the assay on SNB-19 CNS, in the assay with HT29 colon, in the assay with SN12C renal, in the assay with OVCAR-3 ovarian, in the assay on HOP-92 NSCLC and in the assay on RPMI-8226 leukemia was above 100 µM in each case. Also, the TGI in the assay on OVCAR-4 ovarian, with NCI-H522 lung, in the assay on SF-539 CNS, with SR leukemia, in the assay on NCI-H23 lung and in the assay on A498 renal was above 100 µM in each case. The TGI with SNB-75 CNS, in the assay with SK-MEL-2 melanoma, with A549 NSCLC, with SW-620 colon, in the assay on NCI-H460 lung and in the assay on OVCAR-5 ovarian was above 100 µM each time. In the assay on HCT-116 colon, the TGI was above 100 µM.

For `C[N+](CCCl)(CCCl)Cc1cccc2cccc([N+](=O)[O-])c12`, the TGI in the assay with SNB-19 CNS, in the assay on HT29 colon, in the assay on SN12C renal, in the assay with OVCAR-3 ovarian, with HOP-92 NSCLC and in the assay with RPMI-8226 leukemia was above 100 µM each time. The TGI in the assay on OVCAR-4 ovarian, in the assay on NCI-H522 lung, in the assay on SF-539 CNS, in the assay on SR leukemia, with NCI-H23 lung and with A498 renal was above 100 µM throughout. The TGI in the assay with SNB-75 CNS, in the assay with SK-MEL-2 melanoma, with A549 NSCLC, in the assay on SW-620 colon, with NCI-H460 lung and in the assay with OVCAR-5 ovarian was above 100 µM throughout. The molecule further came in with a TGI in the assay with HCT-116 colon above 100 µM.

Regarding `O=C(O)CC(CC(=O)O)C(=O)O`, the TGI in the assay on SNB-19 CNS, in the assay on HT29 colon, with SN12C renal, in the assay on OVCAR-3 ovarian, in the assay on HOP-92 NSCLC and in the assay on RPMI-8226 leukemia was above 100 µM each time. In addition, the concentration for total growth inhibition (TGI) in the assay with OVCAR-4 ovarian, in the assay on NCI-H522 lung, with SF-539 CNS, in the assay with SR leukemia, with NCI-H23 lung and in the assay on A498 renal was above 100 µM in each case. Further, the TGI in the assay on SNB-75 CNS, in the assay on SK-MEL-2 melanoma, in the assay with A549 NSCLC, with SW-620 colon, in the assay with NCI-H460 lung and in the assay with OVCAR-5 ovarian was above 100 µM each time. The same molecule registered a TGI in the assay with HCT-116 colon above 100 µM.

Consider `CC(C)(Cl)C(Br)CCC(C)(Cl)C(Br)CBr` (centres undefined), for which the TGI in the assay on SNB-19 CNS was above 100 µM; with HT29 colon, 46.8 µM; in the assay with SN12C renal, 54.2 µM; with OVCAR-3 ovarian, 41.9 µM; in the assay with HOP-92 NSCLC, 46 µM; in the assay with RPMI-8226 leukemia, 42.2 µM. In addition, the TGI is 87.3 µM with OVCAR-4 ovarian; 35.8 µM in the assay on NCI-H522 lung; 49.7 µM with SF-539 CNS; 22.2 µM in the assay with SR leukemia; 55.6 µM with NCI-H23 lung; 49.6 µM in the assay with A498 renal. The concentration for total growth inhibition (TGI) with SNB-75 CNS is 93.9 µM; with SK-MEL-2 melanoma it was 35.4 µM; in the assay with A549 NSCLC, above 100 µM; in the assay with SW-620 colon, 95.5 µM; in the assay on NCI-H460 lung, 40.5 µM; in the assay on OVCAR-5 ovarian, 48.7 µM. The same molecule gave a TGI with HCT-116 colon of 47.5 µM.

With `O=C(NCC(=O)N1CCCC1C(=O)OC(=O)C1CCCN1C(=O)CNC(=O)OCc1ccccc1)OCc1ccccc1` (centres undefined), the concentration for total growth inhibition (TGI) was above 100 µM in the assay with SNB-19 CNS; 79.2 µM in the assay on HT29 colon; above 100 µM in the assay with SN12C renal; above 100 µM in the assay on OVCAR-3 ovarian; above 100 µM with HOP-92 NSCLC; 70.2 µM in the assay with RPMI-8226 leukemia. For the same molecule, the TGI was above 100 µM with OVCAR-4 ovarian; above 100 µM in the assay on NCI-H522 lung; 40.6 µM with SF-539 CNS; above 100 µM in the assay on SR leukemia; above 100 µM in the assay with NCI-H23 lung; above 100 µM in the assay on A498 renal. Moreover, the TGI in the assay with SNB-75 CNS is 57.2 µM; in the assay on SK-MEL-2 melanoma, 44.8 µM; in the assay with A549 NSCLC, above 100 µM; with SW-620 colon, above 100 µM; in the assay with NCI-H460 lung it was above 100 µM; with OVCAR-5 ovarian, 90.1 µM. This molecule also registered a TGI in the assay on HCT-116 colon above 100 µM.

In the case of `COc1cc2cc3c4c(cc(OC)c(OC)c4c2cc1OC)CCN3C(=O)OCCN1CCNCC1`, the TGI with SNB-19 CNS was found to be 43.3 µM; with HT29 colon, 25.8 µM; in the assay with SN12C renal, 29.9 µM; in the assay on OVCAR-3 ovarian, 28.8 µM; in the assay on HOP-92 NSCLC, 26.2 µM; with RPMI-8226 leukemia, 34.6 µM. Besides, the TGI in the assay on OVCAR-4 ovarian was 31.3 µM; in the assay with NCI-H522 lung it was 30.6 µM; in the assay with SF-539 CNS it was 28.4 µM; in the assay on SR leukemia, 29.8 µM; with NCI-H23 lung, 31.8 µM; in the assay with A498 renal it was 27.8 µM. The TGI in the assay with SNB-75 CNS was found to be 27.5 µM; in the assay on SK-MEL-2 melanoma, 34.2 µM; in the assay on A549 NSCLC, 34.4 µM; in the assay with SW-620 colon it was 28.1 µM; in the assay with NCI-H460 lung, 26.6 µM; with OVCAR-5 ovarian it was 31.9 µM. The same molecule displayed a TGI in the assay with HCT-116 colon of 24.2 µM.

Consider `CCCn1c2ccccc2c2ccc3c(c21)C(=O)C=CC3=O`, for which the TGI in the assay on SNB-19 CNS is above 10 µM; with HT29 colon it was above 10 µM; in the assay with SN12C renal it was above 7.53 µM; in the assay on OVCAR-3 ovarian, 4.88 µM; in the assay with HOP-92 NSCLC, 3.8 µM; with RPMI-8226 leukemia it was 5.4 µM. The TGI in the assay on OVCAR-4 ovarian is 4.07 µM; in the assay on NCI-H522 lung it was 3.54 µM; in the assay on SF-539 CNS it was above 6.41 µM; with SR leukemia, 0.883 µM; with NCI-H23 lung it was 5.99 µM; with A498 renal it was above 10 µM. In addition, the TGI is above 10 µM with SNB-75 CNS; above 10 µM with SK-MEL-2 melanoma; above 10 µM in the assay on A549 NSCLC; 3.27 µM in the assay with SW-620 colon; above 10 µM with NCI-H460 lung; above 10 µM in the assay with OVCAR-5 ovarian. In addition, the TGI in the assay on HCT-116 colon was 3.13 µM.

Values taken from PubChem BioAssay (NCI).
